Activity calls are given as the source filed them.
How the values were obtained:
Cytochrome P450 2C9 = Cytochrome P450 2C9 (Homo sapiens, UniProt P11712); assay: Inhibition of CYP2C9 in human liver microsomes using diclofenac substrate; format: ADME, Microsome
Adipocyte = assay: Inhibition of lipolysis in IBMX-stimulated human adipocytes assessed as glycerol release after 5 hrs; format: functional, cell-based
[1] = Plasma clearance in C57BL/6 mouse at 1 mg/kg, iv or 2 mg/kg, po; format: ADME, organism-based
[2] = Half life in C57BL/6 mouse at 1 mg/kg, iv or 2 mg/kg, po; format: ADME, organism-based; details: in vivo
[3] = Cmax in C57BL/6 mouse at 2 mg/kg, po; format: ADME, organism-based; parameters: dose 2 mg/kg, route oral; details: in vivo
Cytochrome P450 2C8 = target: T1, Cytochrome P450 2C8 (Homo sapiens, UniProt P10632); assay: Inhibition of CYP2C8 in human liver microsomes using montelukast substrate; format: ADME, Microsome
T1 sequence (P10632 whole entry): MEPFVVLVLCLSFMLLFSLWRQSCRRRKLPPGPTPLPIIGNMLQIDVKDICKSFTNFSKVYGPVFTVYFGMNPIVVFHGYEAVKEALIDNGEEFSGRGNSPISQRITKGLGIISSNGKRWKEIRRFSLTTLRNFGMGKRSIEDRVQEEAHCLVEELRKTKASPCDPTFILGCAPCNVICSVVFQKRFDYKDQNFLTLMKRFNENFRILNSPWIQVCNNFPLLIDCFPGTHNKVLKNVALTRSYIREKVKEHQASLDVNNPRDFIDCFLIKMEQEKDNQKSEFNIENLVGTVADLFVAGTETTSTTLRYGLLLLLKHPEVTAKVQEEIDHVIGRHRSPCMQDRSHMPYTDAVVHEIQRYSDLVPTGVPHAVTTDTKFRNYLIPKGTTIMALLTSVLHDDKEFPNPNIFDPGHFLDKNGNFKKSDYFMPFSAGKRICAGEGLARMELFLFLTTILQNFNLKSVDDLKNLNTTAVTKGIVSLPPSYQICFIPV

[4] = Oral bioavailability in C57BL/6 mouse at 2 mg/kg; format: ADME, organism-based; details: in vivo
[5] = Volume of distribution at steady state in C57BL/6 mouse at 1 mg/kg, iv or 2 mg/kg, po; format: ADME, organism-based; details: in vivo, read-out: Vdss
Rattus norvegicus [6] = assay: Plasma concentration in Sprague-Dawley rat at 1 mg/kg, sc; details: read-out: Cp, in vivo
Rattus norvegicus [7] = assay: Toxicity in Sprague-Dawley rat assessed as plasma concentration at threshold dose for vasodilation at 1 mg/kg, sc; details: read-out: Activity, in vivo
Rattus norvegicus [8] = assay: Reduction in free fatty acid level in 18 hrs fasted po dosed Sprague-Dawley rat; format: functional, organism-based
[9] = target: Hydroxycarboxylic acid receptor 2 (Rattus norvegicus, UniProt Q80Z39); assay: Agonist activity at rat GPR109A expressed by [35S]GTPgammaS binding assay; format: functional
Chain of Hydroxycarboxylic acid receptor 2 (Q80Z39 whole entry): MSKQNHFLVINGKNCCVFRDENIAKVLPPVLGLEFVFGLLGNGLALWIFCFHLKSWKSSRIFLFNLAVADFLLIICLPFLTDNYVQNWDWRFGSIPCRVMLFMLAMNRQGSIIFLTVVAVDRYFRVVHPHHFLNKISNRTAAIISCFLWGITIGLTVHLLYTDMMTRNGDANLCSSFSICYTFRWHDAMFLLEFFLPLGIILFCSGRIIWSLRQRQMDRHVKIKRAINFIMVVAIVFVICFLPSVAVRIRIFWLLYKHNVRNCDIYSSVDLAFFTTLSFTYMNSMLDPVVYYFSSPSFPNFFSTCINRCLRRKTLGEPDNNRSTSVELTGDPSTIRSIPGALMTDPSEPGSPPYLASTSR

Rattus norvegicus [10] = assay: Toxicity in Sprague-Dawley rat assessed as plasma concentration at threshold dose for vasodilation at 100 mg/kg, sc; format: organism-based; parameters: dose 100 mg/kg, route subcutaneous; details: in vivo, read-out: Activity
[11] = Therapeutic index, ratio of plasma concentration at threshold dose for vasodilation to IC50 for free fatty acid reduction in Sprague-Dawley rat; format: cell-free; details: read-out: TI
Rattus norvegicus [12] = assay: Toxicity in Sprague-Dawley rat assessed as induction of intense flushing by measuring blood perfusion change by Doppler flometry at 100 mg/kg, sc; format: organism-based; parameters: dose 100 mg/kg, route subcutaneous; details: in vivo
Rattus norvegicus [13] = assay: Reduction in free fatty acid level in 18 hrs fasted Sprague-Dawley rat at 100 mg/kg, po; format: functional, organism-based; parameters: dose 100 mg/kg
Rattus norvegicus [14] = assay: Plasma concentration in Sprague-Dawley rat at 100 mg/kg, sc; format: ADME, organism-based; parameters: dose 100 mg/kg, route subcutaneous; details: in vivo

Chain of Cytochrome P450 2C9 (P11712 whole entry): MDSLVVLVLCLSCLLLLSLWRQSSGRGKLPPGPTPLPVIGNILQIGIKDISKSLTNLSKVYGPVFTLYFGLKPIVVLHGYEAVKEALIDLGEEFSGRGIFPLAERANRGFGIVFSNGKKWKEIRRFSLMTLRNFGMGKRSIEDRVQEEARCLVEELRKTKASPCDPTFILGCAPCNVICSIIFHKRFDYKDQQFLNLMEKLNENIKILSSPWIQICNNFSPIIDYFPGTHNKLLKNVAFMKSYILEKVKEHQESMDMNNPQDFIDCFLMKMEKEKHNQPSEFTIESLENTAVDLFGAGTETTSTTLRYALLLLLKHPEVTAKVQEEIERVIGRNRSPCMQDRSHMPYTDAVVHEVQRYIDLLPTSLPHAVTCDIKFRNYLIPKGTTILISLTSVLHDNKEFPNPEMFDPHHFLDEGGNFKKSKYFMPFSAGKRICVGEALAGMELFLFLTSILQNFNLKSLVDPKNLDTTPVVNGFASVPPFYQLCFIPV

## O=C(CCc1cn2c(n1)sc1ccccc12)Nc1ccccc1C(=O)O
Cytochrome P450 2C9
  IC50: 4.4 µM

## O=C(CCc1noc2c1ccc1cc(O)ccc12)Nc1ccccc1C(=O)O
Adipocyte
  IC50: 0.15 µM
Cytochrome P450 2C9
  IC50: 0.99 µM

## O=C(CCc1noc2c1ccc1c(F)c(O)ccc12)NC1=C(C(=O)O)CCCC1
Cytochrome P450 2C9
  IC50: 2 µM

## O=C(CCc1[nH]nc2c1CCc1cc(O)ccc1-2)Nc1ccccc1C(=O)O
[1]
  clearance: 2.4 mL/min/kg
[2]
  half-life: 2.1 h
[3]
  Cmax: 73 nM
Cytochrome P450 2C8
  IC50: 23 µM
[4]
  bioavailability: 1.4%
Adipocyte
  IC50: 0.28 µM
Cytochrome P450 2C9
  IC50: 26 µM
[5]
  Vd: 0.44 L/kg

## O=C(CCc1cn2c(n1)sc1cc(O)ccc12)NC1=C(C(=O)O)CCCC1
[1]
  clearance: 0.9 mL/min/kg
[2]
  half-life: 4.4 h
[3]
  Cmax: 3800 nM
[4]
  bioavailability: 25%
Adipocyte
  IC50: 2.6 µM
Cytochrome P450 2C9
  IC50: 12 µM
[5]
  Vd: 0.32 L/kg

## O=C(CCc1cnn2c1ccc1cc(O)ccc12)NC1=C(C(=O)O)CCCC1
Adipocyte
  IC50: 0.06 µM
Cytochrome P450 2C9
  IC50: 19 µM

## O=C(CCc1[nH]nc2c1ccc1cc(O)ccc12)Nc1ccccc1C(=O)O
Cytochrome P450 2C8
  IC50: 5.8 µM
Adipocyte
  IC50: 0.06 µM
Cytochrome P450 2C9
  IC50: 9.2 µM

## O=C(CCc1nnn2c1ccc1cc(O)ccc12)Nc1ccccc1C(=O)O
[1]
  clearance: 7 mL/min/kg
[2]
  half-life: 1.7 h
[3]
  Cmax: 170 nM
[4]
  bioavailability: 6%
Adipocyte
  IC50: 0.02 µM
Cytochrome P450 2C9
  IC50: 1.5 µM
[5]
  Vd: 0.95 L/kg

## O=C(CCc1cn2c(n1)sc1cc(O)ccc12)NC1=C(C(=O)O)CCC1
Cytochrome P450 2C9
  IC50: 12 µM

## O=C(O)c1cccnc1 [NIACIN]
Rattus norvegicus [6]
  concentration: 7600 nM
Rattus norvegicus [7]
  concentration: 7600 nM
Adipocyte
  IC50: 0.07 µM
Rattus norvegicus [8]
  IC50: 5 µM

## O=C(CCc1noc2c1Cc1cc(O)ccc1-2)Nc1ccccc1C(=O)O
Cytochrome P450 2C8
  IC50: 20 µM
Cytochrome P450 2C9
  IC50: 8.5 µM

## Cn1c(=O)c2cc(O)ccc2c2ccc(CCC(=O)Nc3ccccc3C(=O)O)cc21
[1]
  clearance: 1.4 mL/min/kg
[2]
  half-life: 2.3 h
[3]
  Cmax: 1260 nM
[4]
  bioavailability: 10%
Cytochrome P450 2C9
  IC50: 4.7 µM
[5]
  Vd: 0.26 L/kg

## Cn1nc(CCC(=O)Nc2ccccc2C(=O)O)c2c1-c1ccc(O)cc1CC2
Cytochrome P450 2C9
  IC50: 17 µM

## O=C(CCc1cnn2c1CCc1cc(O)ccc1-2)Nc1ccccc1C(=O)O
[1]
  clearance: 12 mL/min/kg
[2]
  half-life: 2.9 h
[3]
  Cmax: 350 nM
[9]
  EC50: 2.7 µM
Cytochrome P450 2C8
  IC50: 11 µM
[4]
  bioavailability: 17%
Adipocyte
  IC50: 0.11 µM
Cytochrome P450 2C9
  IC50: 18 µM
Rattus norvegicus [10]
  concentration: 500000 nM
[5]
  Vd: 1.8 L/kg
[11]
  selectivity ratio: 8
Rattus norvegicus [12]
  Activity: Not Active
Rattus norvegicus [13]
  Activity: Active
Rattus norvegicus [8]
  IC50: 60 µM
Rattus norvegicus [14]
  concentration: 500000 nM

## O=C(CCc1ccc2c(ccc3[nH]ncc32)c1)Nc1ccccc1C(=O)O
[1]
  clearance: 0.6 mL/min/kg
[2]
  half-life: 3.5 h
[3]
  Cmax: 3900 nM
[4]
  bioavailability: 24%
Cytochrome P450 2C9
  IC50: < 0.14 µM
[5]
  Vd: 0.19 L/kg

## O=C(CCc1noc2c1CCc1cc(O)ccc1-2)Nc1ccccc1C(=O)O
[1]
  clearance: 9.7 mL/min/kg
[2]
  half-life: 1.8 h
[3]
  Cmax: 620 nM
Cytochrome P450 2C8
  IC50: 5.9 µM
[4]
  bioavailability: 8.2%
Cytochrome P450 2C9
  IC50: 2.2 µM
[5]
  Vd: 1.1 L/kg

## O=C(CCc1noc2c1ccc1cc(O)ccc12)NC1=C(C(=O)O)CCCC1
Cytochrome P450 2C9
  IC50: 12 µM

## O=C(CCc1noc2c1CCc1cc(O)ccc1-2)NC1=C(C(=O)O)CCCC1
Cytochrome P450 2C8
  IC50: 44 µM
Cytochrome P450 2C9
  IC50: 11 µM

## O=C(CCc1noc2c1CCc1cc(O)ccc1-2)NC1=C(C(=O)O)CCC1
[1]
  clearance: 4.1 mL/min/kg
[2]
  half-life: 1.9 h
[3]
  Cmax: 1830 nM
Cytochrome P450 2C8
  IC50: 47 µM
[4]
  bioavailability: 7.5%
Cytochrome P450 2C9
  IC50: 47 µM
[5]
  Vd: 0.2 L/kg

## O=C(CCc1cn2c(n1)sc1cc(O)ccc12)Nc1ccccc1C(=O)O
Adipocyte
  IC50: 0.2 µM

## O=C(CCc1noc2c1ccc1c(Cl)c(O)ccc12)NC1=C(C(=O)O)CCCC1
Cytochrome P450 2C9
  IC50: 1.5 µM

— ChEMBL document CHEMBL1154005 (J Med Chem, 2009)
